Results from PMC8286840, “Identifying SARS-CoV-2 antiviral compounds by screening for small molecule inhibitors of Nsp3 papain-like protease” (Biochemical Journal, 2021).
Where a name gives a salt, the structure may show the parent alone. Read-outs that look alike come from different tables or passages of the source.

Key:
[1] = molecular target: T1, SARS-CoV-2 PLpro (nsp3 1564–1878) (Severe acute respiratory syndrome coronavirus 2, UniProt P0DTD1); assay: biochemical; set-up: FRET-quenched peptide (Pro3) cleavage by PLpro, 10 min pre-incubation, slope over 20 min, normalised to no-compound control; details: low concentration screen, read-out: % of control remaining
[2] = molecular target: T1, SARS-CoV-2 PLpro (nsp3 1564–1878); assay: biochemical; set-up: FRET-quenched peptide (Pro3) cleavage by PLpro, 10 min pre-incubation, slope over 20 min, normalised to no-compound control; details: high concentration screen, read-out: % of control remaining

## Nc1c2c(nc3ccccc13)CCCC2 [9-Amino-1,2,3,4-tetrahydroacridine hydrochloride]
[1]; Well no.=157
  remaining activity at 1.25 µM: 102%
[2]; Well no.=157
  remaining activity at 3.75 µM: 102%

## NC(=O)N[C@@H](CCC(=O)O)C(=O)O [Carglumic Acid]
[1]; Well no.=7594
  remaining activity at 1.25 µM: 99.7%
[2]; Well no.=7594
  remaining activity at 3.75 µM: 102%

## COc1ccc2c(c1)c(CC(=O)O)c(C)n2C(=O)c1ccccc1 [1-benzoyl-5-methoxy-2-methylindole-3-acetic acid]
[1]; Well no.=118
  remaining activity at 1.25 µM: 102%
[2]; Well no.=118
  remaining activity at 3.75 µM: 104%

## O=S(=O)(O)c1cc(O)c2c(N=Nc3c(S(=O)(=O)O)cc4cc(S(=O)(=O)O)cc(O)c4c3O)cc(S(=O)(=O)O)cc2c1 [Beryllon II]
[1]; Well no.=7982
  remaining activity at 1.25 µM: 92.8%
[2]; Well no.=7982
  remaining activity at 3.75 µM: 93.7%

## CCCCCCCC(=O)N[C@H](CN1CCCC1)[C@H](O)c1ccc2c(c1)OCCO2 [Eliglustat]
[1]; Well no.=8530
  remaining activity at 1.25 µM: 100%
[2]; Well no.=8530
  remaining activity at 3.75 µM: 99%

## COc1cc2c(cc1O)CCN[C@@H]2C [Salsoline]
[1]; Well no.=3715
  remaining activity at 1.25 µM: 100%
[2]; Well no.=3715
  remaining activity at 3.75 µM: 102%

## O=C(c1ccc(Nc2nccc(-c3cc4ccccc4s3)n2)cc1)N1CCC(N2CCCC2)CC1 [IKK 16 - N-(4-Pyrrolidin-1-yl-piperidin-1-yl)-[4-(4-benzo[b]thiophen-2-yl-pyrimidin-2-ylamino)phenyl]carboxamide hydrochloride]
[1]; Well no.=2542
  remaining activity at 1.25 µM: 100%
[2]; Well no.=2542
  remaining activity at 3.75 µM: 103%

## COc1cccc2c1C(=O)c1c(O)c3c(c(O)c1C2=O)C[C@@](O)(C(=O)CO)C[C@@H]3O[C@H]1C[C@H](N)[C@H](O)[C@H](C)O1 [Doxorubicin.HCl]
[1]; Well no.=1710
  remaining activity at 1.25 µM: 98.5%
[1]; Well no.=3235
  remaining activity at 1.25 µM: 105%
[2]; Well no.=1710
  remaining activity at 3.75 µM: 100%
[2]; Well no.=3235
  remaining activity at 3.75 µM: 105%

## CC(C(=O)O)c1ccc2c(c1)CC(=O)c1ccccc1S2 (stereo not drawn) [Zaltoprofen]
[1]; Well no.=4879
  remaining activity at 1.25 µM: 96.8%
[2]; Well no.=4879
  remaining activity at 3.75 µM: 97.2%

## C#C[C@]1(O)CC[C@H]2[C@@H]3CCC4=Cc5oncc5C[C@]4(C)[C@H]3CC[C@@]21C [Danazol]
[1]; Well no.=584
  remaining activity at 1.25 µM: 94.6%
[1]; Well no.=1942
  remaining activity at 1.25 µM: 105%
[2]; Well no.=584
  remaining activity at 3.75 µM: 97%
[2]; Well no.=1942
  remaining activity at 3.75 µM: 106%

## Cn1cc(C(F)(F)F)nc1-c1ccc(OCC(O)CNCCOc2ccc(O)c(C(N)=O)c2)cc1 (stereo not drawn) [CGP 20712A methanesulfonate]
[1]; Well no.=585
  remaining activity at 1.25 µM: 105%
[2]; Well no.=585
  remaining activity at 3.75 µM: 106%

## c1cnc(N2CCN(Cc3ccc4c(c3)OCO4)CC2)nc1 [Piribedil.2HCl]
[1]; Well no.=1841
  remaining activity at 1.25 µM: 96.6%
[2]; Well no.=1841
  remaining activity at 3.75 µM: 95.4%

## CCCCCCCCCCCCCC(=O)O[C@@H]1[C@@H](C)[C@@]2(O)[C@@H](C=C(CO)C[C@]3(O)C(=O)C(C)=C[C@@H]23)[C@@H]2C(C)(C)[C@]12OC(C)=O [Phorbol 12-myristate 13-acetate]
[1]; Well no.=1493
  remaining activity at 1.25 µM: 101%
[1]; Well no.=3078
  remaining activity at 1.25 µM: 102%
[2]; Well no.=1493
  remaining activity at 3.75 µM: 97.5%
[2]; Well no.=3078
  remaining activity at 3.75 µM: 105%

## CN(C)C(=O)N[C@H]1CC[C@H](CCN2CCN(c3cccc(Cl)c3Cl)CC2)CC1 [Cariprazine (hydrochloride)]
[1]; Well no.=6661
  remaining activity at 1.25 µM: 108%
[2]; Well no.=6661
  remaining activity at 3.75 µM: 103%

## CC(C)OC(=O)C(C(=O)OC(C)C)=C1SC=CS1 [Malotilate]
[1]; Well no.=8884
  remaining activity at 1.25 µM: 85.8%
[2]; Well no.=8884
  remaining activity at 3.75 µM: 84.3%

## C=CC(=O)N1CCC[C@@H](n2nc(-c3ccc(Oc4ccccc4)cc3)c3c(N)ncnc32)C1 [PCI-32765 (Ibrutinib)]
[1]; Well no.=4649
  remaining activity at 1.25 µM: 96%
[2]; Well no.=4649
  remaining activity at 3.75 µM: 88.8%

## CC(=O)OCC(=O)[C@@]1(O)CC[C@H]2[C@@H]3CCC4=CC(=O)CC[C@]4(C)[C@H]3[C@@H](O)C[C@@]21C [Hydrocortisone 21-acetate]
[1]; Well no.=2214
  remaining activity at 1.25 µM: 100%
[2]; Well no.=2214
  remaining activity at 3.75 µM: 101%

## CN1CCC(S(=O)(=O)c2c(Cl)ccc(NC(=O)Nc3cccc(F)c3Cl)c2O)CC1 [CXCR2-IN-1]
[1]; Well no.=8705
  remaining activity at 1.25 µM: 100%
[2]; Well no.=8705
  remaining activity at 3.75 µM: 98.8%

## Cc1cccc(C(C)c2c[nH]cn2)c1C (stereo not drawn) [Medetomidine HCl]
[1]; Well no.=4927
  remaining activity at 1.25 µM: 99.2%
[2]; Well no.=4927
  remaining activity at 3.75 µM: 100%

## COc1cc(Nc2c(C#N)cnc3cc(OCCCN4CCN(C)CC4)c(OC)cc23)c(Cl)cc1Cl [Bosutinib]
[1]; Well no.=2883
  remaining activity at 1.25 µM: 97.8%
[2]; Well no.=2883
  remaining activity at 3.75 µM: 100%

## C[C@H](NC(=O)CNC(=O)c1cccc(Cl)c1)c1ccccc1 [JNJ-63533054]
[1]; Well no.=8047
  remaining activity at 1.25 µM: 98.3%
[2]; Well no.=8047
  remaining activity at 3.75 µM: 102%

## Cc1nc2c([nH]1)-c1ccccc1N(C(=O)c1ccc(NC(=O)c3ccccc3-c3ccccc3)cc1)CC2 [Conivaptan (hydrochloride)]
[1]; Well no.=6463
  remaining activity at 1.25 µM: 99.7%
[2]; Well no.=6463
  remaining activity at 3.75 µM: 101%

## C[C@@H]1O[C@@H](OC[C@H]2O[C@@H](Oc3c(-c4ccc(OCCO)c(OCCO)c4)oc4cc(OCCO)cc(O)c4c3=O)[C@H](O)[C@@H](O)[C@@H]2O)[C@H](O)[C@H](O)[C@H]1O [Troxerutin]
[1]; Well no.=4866
  remaining activity at 1.25 µM: 95.4%
[2]; Well no.=4866
  remaining activity at 3.75 µM: 93.8%

## C[N+](C)(C)CCOC(N)=O [Carbamylcholine]
[1]; Well no.=1734
  remaining activity at 1.25 µM: 99.8%
[2]; Well no.=1734
  remaining activity at 3.75 µM: 102%

## C=C1CC[C@H](O)C/C1=C/C=C1\CCC[C@]2(C)[C@@H]([C@H](C)CCCC(C)C)CC[C@@H]12 [Vitamin D3 (Cholecalciferol)]
[1]; Well no.=4702
  remaining activity at 1.25 µM: 99.7%
[2]; Well no.=4702
  remaining activity at 3.75 µM: 100%

## CC(=O)Nc1ccc(C(=O)Nc2ccccc2N)cc1 [CI994 (Tacedinaline)]
[1]; Well no.=5165
  remaining activity at 1.25 µM: 103%
[2]; Well no.=5165
  remaining activity at 3.75 µM: 101%

## O=C(O)[C@@H](O)Cc1ccccc1 [(S)-2-Hydroxy-3-phenylpropanoic acid]
[1]; Well no.=7173
  remaining activity at 1.25 µM: 96.3%
[2]; Well no.=7173
  remaining activity at 3.75 µM: 88.8%

## Nc1ccc(S(=O)(=O)Nc2cnc3ccccc3n2)cc1 [Sulfaquinoxaline sodium salt]
[1]; Well no.=8124
  remaining activity at 1.25 µM: 103%
[2]; Well no.=8124
  remaining activity at 3.75 µM: 100%

## CCN(CC)CCOC(=O)c1ccc(N)cc1 [Procaine hydrochloride]
[1]; Well no.=1165
  remaining activity at 1.25 µM: 103%
[2]; Well no.=1165
  remaining activity at 3.75 µM: 105%

## Cc1cc(OCCCS(C)(=O)=O)cc(C)c1-c1cccc(COc2ccc3c(c2)OC[C@H]3CC(=O)O)c1 [TAK-875]
[1]; Well no.=4966
  remaining activity at 1.25 µM: 96.6%
[1]; Well no.=7771
  remaining activity at 1.25 µM: 107%
[2]; Well no.=4966
  remaining activity at 3.75 µM: 91.6%
[2]; Well no.=7771
  remaining activity at 3.75 µM: 103%

## CCCCCCCCCCCCCCCC(=O)O [Hexadecanoic acid]
[1]; Well no.=4302
  remaining activity at 1.25 µM: 101%
[2]; Well no.=4302
  remaining activity at 3.75 µM: 97.2%

## CNC(=O)[C@H]1O[C@@H](n2cnc3c(NCc4cccc(I)c4)nc(Cl)nc32)[C@H](O)[C@@H]1O [2-Cl-IB-MECA]
[1]; Well no.=6316
  remaining activity at 1.25 µM: 95%
[2]; Well no.=6316
  remaining activity at 3.75 µM: 90.2%
